Results reported in patent publication US5962456A, “N-acylpiperazine derivative, anti-ulcer drug, and antibacterial drug” (Shiseido Co., Ltd., priority 1996, dated 1999).

Legend:
stress ulcer = experiment: WIS: Restraint and Water Immersion Stress-Induced Ulcer Inhibition Test; assay type: in vivo, rat (male Crj:SD or Slc:SD); conditions: 100 mg/kg oral, rats, 7 hours restraint and water immersion (21° C.)
Protocol: WIS: Restraint and Water Immersion Stress-Induced Ulcer Inhibition Test
The degree of inhibition of the stress ulcer formation is tested.
Male Crj:SD or Slc:SD rats (6 to 7-week-old) were fasted overnight, but allowed free access to water. Each group has 5 to 8 of these rats. […] To a control group, the vehicle was administered. 10 minutes later, the rats were placed in a stress cage and immersed to the level of xipfoid process in a water bath (21° C.) for 7 hours. At the end of the stress, the rats were sacrificed by inhalation of ether or carbon dioxide. Then, the stomach of each was removed, inflated by injecting 10 ml of 5% formalin neutral buffer solution, and immersed in 1% formalin neutral buffer solution for 30 minutes or more to be fixed. The stomach was incised along the greater curvature and then the length of each erosion in the glandular portion was determined under dissecting microscope. The sum of the length of erosions per stomach was defined as ulcer index (UI).
The effect obtained when 100 mg/kg of the sample compound had been administered was expressed as ulcer formation inhibitory rate (%) as follows:
ulcer formation inhibitory rate (%)=(1-(UI in sample group/UI in control group))×100

Helicobacter pyroli = experiment: AHP: Antibacterial Activity Test Against Helicobacter pyroli (agar dilution); assay type: cell-based, HP NCTC 11637; conditions: Helicobacter, NCTC11637, 168 h; HP NCTC 11637, agar dilution, 7 days; read-out: AHP minimum inhibitory concentration (MIC)
Protocol: AHP: Antibacterial Activity Test Against Helicobacter pyroli i) Meaning The minimum inhibitory concentration (MIC) against Helicobacter pyroli (microaerophilic gram-negative bacterium which is supposed to deeply involve in pathogenesis, relapse, and recrudescence of ulcer, referred to as "HP" in the following) is measured so as to find out compounds which have antimicrobial activity against Helicobacter pyroli. ii) Method MICs were determined by the agar dilution method. The stock culture (-80° C.) of HP NCTC 11637 was thawed and cultured on tripticase soy agar supplemented with 5% sheep blood at 37° C. in an atmosphere of 5% O2, 10% CO2, and 85% N2. Grown colonies were transferred to the same plate and precultured for 3 days under the same condition. […] 10 μl of the bacterial suspension for inoculation (about 10^3 cfu) was inoculated on this plate and cultured for 7 days under the same condition as that of preculture. […] As the result of the comparison of these plates, when the number of the colony on the plate containing the sample compound was less than 90% with respect to that on the control plate, it was represented by "+". Contrary to this, when there was 90% or more, it was represented by "-".

[1] = MTT: Cell Damaging and Protecting Effect Test; assay type: cell-based, rabbit (male Japanese White); conditions: rabbit, gastric corpus mucosa cells, final concentration 10^-4 M, smaller value is better, read-out: MTT cell damaging rate
Excerpt: MTT: Cell Damaging and Protecting Effect Test
It is confirmed that there is no toxicity in cell level. Those having a toxicity in cell level are inappropriate as an anti-ulcer drug.
A male Japanese White rabbit (2.5 to 3 kg) was anesthetized to death by Nembutal™ and, immediately thereafter, its stomach was removed. The greater curvature of the stomach was incised so as to remove the stomach contents therefrom. After the mucosal surface was washed with HBSS (Hanks' Balanced Salt Solution), the stomach in ice-cooled HBSS was transferred to a laboratory. Then, after the pyloric antrum was removed, the gastric corpus mucosa was separated by a spatula and then minced into 2 to 3 mm^3 pieces in BME (Basal Medium Eagle). Thereafter, these pieces were shaken at 120 to 130 cycles/minute for 15 minutes at 37° C. in BME 60 ml containing 280 U/ml of dispase and 30 to 50 U/ml of collagenase. Here, the concentration of collagenase was appropriately changed for each lot in view of the state of cells. The pieces were washed twice with EBSS (Earle's Balanced Salt Solution) containing 1 mM of EDTA and then shaken in MEM (Minimum Essential Medium) containing 1 mM of EDTA at 37° C. for 5 minutes. Subsequently, they were shaken in the dispase and collagenase having the same concentrations as those mentioned above for 15 minutes so as to remove the supernatant and then further shaken at 37° C. for 50 to 60 minutes at 120 to 130 cycles/minute. Then, after being washed twice with HBSS, Ham F12 containing 2% of Ultrocer G™ was used to attain the concentration of 1×10^6 cells/ml. Thus formed suspension was dispensed in each well of a 96-well plate by 200 μl. The plate was incubated in the atmosphere composed of 5% CO2 and 95% air at 37° C. for three days so as to attain a confluent state and then subjected to MTT assay.
The sample compound was dissolved in DMSO so as to attain a concentration of 10^-2 M and then diluted with HBSS containing 2% of Ultrocer G™ so as to attain a final concentration of 10^-4 M. To each group, which 8 wells were used for, 10 μl of MTT reagent was added immediately after 100 μl of the medium in each well was exchanged for same volume of the resulting solution of the sample compound. After being incubated in an atmosphere composed of 5% CO2 and 95% air at 37° C. for 4 hours, thus formed solution was centrifuged and then its supernatant was discarded. Subsequently, 100 μl of 100% ethanol was added to the residue so as to dissolve MTT formazan. Then, the absorbance (OD: 570 to 630) was measured by a microplate reader. This method utilizes a phenomenon in which MTT is changed to MTT formazan only by mitochondria of living cells so as to change color.
The cell damaging or cell protecting effect of the sample compound at the final concentration of 10^-4 M was expressed as cell damaging rate (%) as follows:
cell damaging rate (%)=(1-(absorbance in sample group/absorbance in control group))×100
Accordingly, the smaller rate value is better in the cell damage.

MIC (Helicobacter pyroli): < 3.13 µg/mL
SMILES: CC(C)=CCC/C(C)=C/COc1ccc(C(=O)N2CCN(CCNC(=O)c3ccc4c(c3)OCO4)CC2)cc1 [Example 1, 1-(4-geranyloxy)benzoyl-4-[2-(piperonyloylamino)ethyl]piperazine]
WIS ulcer formation inhibitory rate (stress ulcer): 81%
cytotoxicity at 4 h, 100 µM [1]: 21%
